Among the data in patent US9533128B2, “Devices for maintaining patency of surgically created channels in tissue” (Broncus Medical Inc., priority 2003, dated 2017) are release profile values, retold here.

For this series the following is noted: polymer system of polydimethylsiloxane vinyl terminated at various viscosity and platinum-mono, di, tri and/or tetramethyldisiloxane complex.

SMILES strings stand for the structures.

From the text: These components may be combined in different ratios to make the polymer. […] The amount of vinyl siloxane cross-linker may determine the rate of the drug release and diffusivity of the polymer to the drug.

In the case of `CC(=O)O[C@H]1C(=O)[C@@]2(C)[C@H]([C@H](OC(=O)c3ccccc3)[C@]3(O)C[C@H](OC(=O)[C@H](O)[C@@H](NC(=O)c4ccccc4)c4ccccc4)C(C)=C1C3(C)C)[C@]1(OC(C)=O)CO[C@@H]1C[C@@H]2O` [paclitaxel], the release profile result is “acceptable”.
